Experimental data taken from BindingDB's records for doi:10.1016/S0960-894X(01)80865-9 (1993).

Target: S-adenosylmethionine decarboxylase proenzyme (Escherichia coli) (UniProt P0A7F6)
Experiment: Tested for irreversible inhibitory activity against AdoMet-DC (S-adenosyl-methionine decarboxylase-) isolated from Escherichia coli

Chain of S-adenosylmethionine decarboxylase proenzyme (Escherichia coli) (P0A7F6 whole entry, looked up): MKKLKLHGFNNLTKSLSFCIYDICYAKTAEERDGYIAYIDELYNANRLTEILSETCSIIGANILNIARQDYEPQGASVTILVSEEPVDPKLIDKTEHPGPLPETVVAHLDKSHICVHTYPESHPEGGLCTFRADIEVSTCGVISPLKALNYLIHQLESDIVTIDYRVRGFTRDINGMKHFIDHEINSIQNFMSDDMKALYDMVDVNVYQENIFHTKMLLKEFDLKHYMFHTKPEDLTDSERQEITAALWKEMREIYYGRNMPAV

Ki [µM]	SMILES
960	Nc1ncnc2c1ncn2[C@@H]1O[C@H](CS[C@H]2CN[C@H](C(=O)O)C2)[C@@H](O)[C@H]1O
669	C[S+](C[C@H]1O[C@@H](n2cnc3c(N)ncnc32)[C@H](O)[C@@H]1O)C1CCNC1 (stereo not given in full)
415	Nc1ncnc2c1ncn2[C@@H]1O[C@H](CSC2CCNC2)[C@@H](O)[C@H]1O (stereo not given in full)
478	Nc1ncnc2c1ncn2[C@@H]1O[C@H](CS[C@@H]2CN[C@H](C(=O)O)C2)[C@@H](O)[C@H]1O
18	C[S+](C[C@H]1O[C@@H](n2cnc3c(N)ncnc32)[C@H](O)[C@@H]1O)C1C=C[C@H](N)C1 (stereo not given in full)
